Columns and labels:
[1] = cited from earlier work; for Activity as alpha-TE: alpha-tocopherol equivalents (TE), table from Vitamin E in Health and Disease, 1993, p. 21
[2] = Brain analysis of infant brain (tocopherol content and correlations); type: in vivo, human; conditions: formula fed infant brain
Excerpt: Cholesterol is a major component of myelin, and thus, is a marker for extent of CNS myelination. Glutamate is a neurotransmitter, which is reported to stimulate neuron outgrowth and branching. […] Accordingly, an excessively high level of dietary gamma-tocopherol may hinder the brain uptake of RRR alpha-tocopherol, and thus, may hinder CNS development.
Most commercial infant formulas are fortified with synthetic alpha-tocopherols. It has been reported that the plasma […] of the 2R isomers are about equal for animals fed a diet containing synthetic alpha-tocopherols. These findings indicate that RRR alpha-tocopherol is preferably absorbed into the brain or it is metabolized at a much slower rate than RSR, RRS and RSS tocopherols.

In the case of `Cc1c(O)cc2c(c1C)O[C@](C)(CCC[C@H](C)CCC[C@H](C)CCCC(C)C)CC2` [RRR gamma-tocopherol], the “Activity as alpha-TE” value [1] is listed as 0.1 mg/mg compound.
In the case of `Cc1cc(O)c(C)c2c1O[C@](C)(CCC[C@H](C)CCC[C@H](C)CCCC(C)C)CC2` [RRR beta-tocopherol], the “Activity as alpha-TE” value [1] is given as 0.5 mg/mg compound.
For `CC(C)=CCC/C(C)=C/CC/C(C)=C/CC[C@]1(C)CCc2c(C)c(O)cc(C)c2O1` [RRR beta-tocotrienol], the “Activity as alpha-TE” value [1] is listed as 0.05 mg/mg compound.
For `Cc1cc(O)cc2c1O[C@](C)(CCC[C@H](C)CCC[C@H](C)CCCC(C)C)CC2` [RRR delta-tocopherol], the “Activity as alpha-TE” value [1] is given as 0.03 mg/mg compound.
For `CC(C)=CCC/C(C)=C/CC/C(C)=C/CC[C@]1(C)CCc2c(C)c(O)c(C)c(C)c2O1` [RRR alpha-tocotrienol], the “Activity as alpha-TE” value [1] is listed as 0.3 mg/mg compound.
In the case of `Cc1c(C)c2c(c(C)c1O)CC[C@@](C)(CCC[C@H](C)CCC[C@H](C)CCCC(C)C)O2` [RRR alpha-tocopherol], the “Activity as alpha-TE” value [1] is given as 1.0 mg/mg compound, the “assigned vitamin E activity” value ([1]; assigned reference activity) is given as 1 mg alpha-tocopherol equivalent (TE) per milligram and the “share of the alpha-tocopherol in brain that is RRR alpha-tocopherol” value [2] is given as “over 60%”.
For `CC(=O)Oc1c(C)c(C)c2c(c1C)CCC(C)(CCC[C@H](C)CCC[C@H](C)CCCC(C)C)O2` (mixture of isomers) [Synthetic alpha-tocopherol acetate, alpha-tocopherol acetate], the “Activity as alpha-TE” value [1] is listed as 0.74 mg/mg compound.

Reference: patent publication US10328049B2, “Infant nutritional product with RRR alpha-tocopherol” (ABBOTT LABORATORIES, priority 2013, dated 2019)
